Results as given in US20260345555A1, “Compositions and Methods for Protecting Salivary Glands from Off-Target Radiation Damage” (University of Rochester, priority 2022, published 2026).
Where a name gives a salt, the structure may show the parent alone.

Each compound was assayed on Reduced glutathione in salivary gland cell clusters (SGm) (assay: Glutathione assay in salivary gland tissue chip, 4 days post-radiation (15 Gy); also first screen of Selleck library at 100 μM). Conditions: not given.
Type: cell-based, mouse
From the text: A salivary gland tissue chip was leveraged for high-content drug screening to identify novel radioprotective compounds (Song Y et al., Commun Biol., 2021, 4). The chip platform consists of an array of near-spherical microbubble (MB) cavities formed in poly(dimethylsiloxane) (PDMS). Each chip, containing ~50 MBs, affixed within wells of a 96-well plate (FIG. 1C). Primary salivary gland cell clusters (FIG. 1A), suspended in a poly(ethylene glycol) (PEG) hydrogel precursor and MMP-degradable peptide crosslinker solution together with the photoinitiator LAP, were applied to the chip allowing the clusters to deposit into the MBs (FIG. 1D). In situ polymerization of the hydrogel was achieved using long-wave, low intensity UV light. Over time, the cell clusters aggregate and proliferate to form SGm (FIG. 1C).
The glutathione assay was used to measure glutathione levels at various time points post-radiation to determine the optimal time point for detecting differences between 0 Gy and 15 Gy. Based on the data, the greatest signal separation was measured at 4 days post-irradiation (FIG. 9). This timepoint is similar to previous reports on decreases in glutathione post-radiation and was used for all experiments moving forward (Meeks L et al., Physiological Genomics, 2021, 53: 85-98).
The dose response to WR-1065 was examined to determine effective concentrations of WR-1065 to prevent the reduction of glutathione levels post-radiation. A SGm tissue chip was cultured for 4 days to allow spheres to form. The chip was then treated with WR-1065 30 minutes before and during radiation, followed by drug wash out with media 30 minutes post-radiation (FIG. 2A). This dosing scheme is consistent with the use of Amifostine clinically and with previous work. The glutathione assay was performed at 4 days post-radiation (FIG. 2A). […] Moreover, it is clinically relevant as 15-30 minutes before radiation, patients are administered Amifostine intravenously at 200 mg/m (Escobar A et al., IntechOpen, 2019, pp. 15-37; Eisbruch A, J Clin Oncol, 2011, 29: 119-121; Bardet, E. et al. Semin Oncol, 2002, 29, 57-60). Assuming an average adult body surface area of 17,000 cm^2 and a blood volume of 1.35 gallons (5.1 liters), Amifostine is administered at 300 μM (Mosteller, R. D. N Engl J Med 317, 1098 (1987)).
The glutathione and senescence assays were used to screen a library of FDA-approved drugs (Selleck Chemicals) at 100 μM. Drugs were first screened using the glutathione assay according to the timeline depicted in FIG. 2A. Any compound resulting in statistically similar glutathione levels compared to 0 Gy control was considered a hit (FIG. 4, grey circles). Hits with the glutathione assay were then tested with the senescence assay and considered a “double hit” if senescence levels were statistically similar to levels at 0 Gy (FIG. 4, black circles). […] While this hit rate is higher than many other drug screening reports (0.1-0.3%), this may be due to the statistical rigor afforded by the tissue chip format (Blanchard, C et al., Antimicrob Agents Chemother 2016, 60, 862-872; Colquhoun, J. M et al., Antibiotics (Basel) 2019, 8, 48). Additionally, phenotypic screens generally have higher hit rates than target-based screens (>1%) (Moffat, J. G et al., Nature Reviews Drug Discovery 2017, 16, 531-543; Rottman, M et al., Science 2010, 329, 1175-1180).
Mice were euthanized and the submandibular glands (SMG) were removed and chopped with a razor blade for 5 min. The tissue was then incubated in Hank's buffered salt solution (HBSS) containing 15 mM HEPES, 50 U/mL collagenase type II (Thermo Fischer 17101015), and 100 U/mL hyaluronidase (Sigma Aldrich H3506) at 37 °C for 30 min. Cells were centrifuged, then resuspended in HBSS with 15 mM HEPES and passed through 100 μm and 20 μm mesh filters to isolate clusters between 20-100 μm. The digestion protocol produces cell cluster sizes evenly distributed between 20 to 100 μm (Song, Y et al., Advanced Healthcare Materials). […]
`O=P1(NCCCl)OCCCN1CCCl` (stereo not drawn) [Ifosfamide] was tested, and the “Glutathione: Normalized mean intensity” value was 0.7162. With `Cc1c(OCC(F)(F)F)ccnc1C[S+]([O-])c1nc2ccccc2[nH]1` (stereo not drawn) [Lansoprazole] the “Glutathione: Normalized mean intensity” value was 0.6174.

Same assay, conditions: first screen of Selleck library at 100 μM, 15 Gy, 4 days post-radiation
`O=C(O)CSCC(=O)NC1CCSC1=O` (stereo not drawn) [Erdosteine] was tested, and the “Glutathione normalized mean intensity” value was 0.5728. In the case of `CN(C)[C@@H](CCOc1cccc2ccccc12)c1ccccc1` [Dapoxetine hydrochloride (Priligy)], the “Glutathione normalized mean intensity” value is reported as 0.7539. For `CC[C@H]1OC(=O)[C@H](C)[C@@H](O[C@H]2C[C@@](C)(OC)[C@@H](O)[C@H](C)O2)[C@H](C)[C@@H](O[C@@H]2O[C@H](C)C[C@H](N(C)C)[C@H]2O)[C@](C)(O)C[C@@H](C)CN(C)[C@H](C)[C@@H](O)[C@]1(C)O` [Azithromycin (Zithromax)], the “Glutathione normalized mean intensity” value was 0.8765. For `CCc1cc(C(N)=S)ccn1` [Ethionamide], the “Glutathione normalized mean intensity” value was 0.7451. With `COC(=O)Nc1nc2ccc([S+]([O-])c3ccccc3)cc2[nH]1` (stereo not drawn) [Oxfendazole] the “Glutathione normalized mean intensity” value was 0.6. For `O=C1c2ccccc2C(=O)C1c1ccccc1` [Phenindione (Rectadione)], the “Glutathione normalized mean intensity” value was 0.6802. For `CN(C)c1ccc(C(=C2C=CC(=[N+](C)C)C=C2)c2ccc(N(C)C)cc2)cc1` [Crystal violet], the “Glutathione normalized mean intensity” value was 0.1262. For `NCC1CCC(C(=O)O)CC1` (stereo not drawn) [Tranexamic acid (Transamin)], the “Glutathione normalized mean intensity” value was 0.7568. In the case of `c1ccc([C@H]2CN3CCSC3=N2)cc1` [Levamisole Hydrochloride (Ergamisol)], the “Glutathione normalized mean intensity” value is reported as 0.8181. In the case of `Nc1ncn([C@@H]2O[C@H](CO)[C@@H](O)[C@H]2O)c(=O)n1` [Azacitidine (Vidaza)], the “Glutathione normalized mean intensity” value is reported as 0.5322. In the case of `Cc1c(Cl)cccc1Nc1ccccc1C(=O)O` [Tolfenamic acid], the “Glutathione normalized mean intensity” value is reported as 0.8008. For `O=c1[nH]c(=O)n([C@H]2C[C@H](O)[C@@H](CO)O2)cc1I` [Idoxuridine], the “Glutathione normalized mean intensity” value was 0.7701. With `CC(C)[C@H](N)C(=O)OCCOCn1cnc2c(=O)[nH]c(N)nc21` [Valaciclovir HCl] the “Glutathione normalized mean intensity” value was 0.6362. With `C=CCc1cc(OC)c(O)c(C(=O)NCCO)c1` [Alibendol] the “Glutathione normalized mean intensity” value was 0.7165. In the case of `[I-].[K+]` [Potassium iodide], the “Glutathione normalized mean intensity” value is reported as 0.386. For `COCCc1ccc(OCC(O)CNC(C)C)cc1` (stereo not drawn) [Metoprolol tartrate], the “Glutathione normalized mean intensity” value was 0.829. In the case of `CO[C@H]1/C=C/O[C@@]2(C)Oc3c(C)c(O)c4c(O)c(c5c(nc6cc(C)ccn65)c4c3C2=O)NC(=O)/C(C)=C\C=C\[C@H](C)[C@H](O)[C@@H](C)[C@@H](O)[C@@H](C)[C@H](OC(C)=O)[C@@H]1C` [Rifaximin (Xifaxan)], the “Glutathione normalized mean intensity” value is reported as 0.3977. With `CN=C(NC#N)NCCSCc1nc[nH]c1C` [Cimetidine (Tagamet)] the “Glutathione normalized mean intensity” value was 0.9597. For `NNC(=O)c1ccncc1` [Isoniazid (Tubizid)], the “Glutathione normalized mean intensity” value was 0.3683. For `CC(N)C12CC3CC(CC(C3)C1)C2` (stereo not drawn) [Rimantadine (Flumadine)], the “Glutathione normalized mean intensity” value was 0.3987. With `C[C@@](Cc1ccc(O)c(O)c1)(NN)C(=O)O` [Carbidopa] the “Glutathione normalized mean intensity” value was 0.5325. In the case of `CC(C)OC(=O)C(C)(C)Oc1ccc(C(=O)c2ccc(Cl)cc2)cc1` [Fenofibrate (Tricor, Trilipix)], the “Glutathione normalized mean intensity” value is reported as 0.5348. For `CCCOc1ccc(C(=O)OCCN(CC)CC)cc1N` [Proparacaine HCl], the “Glutathione normalized mean intensity” value was 0.7045. `CN1[C@@H]2CC[C@H]1C[C@@H](OC(=O)c1c[nH]c3ccccc13)C2` [Tropisetron] was tested, and the “Glutathione normalized mean intensity” value was 0.5993. In the case of `O=P(O)(O)C(O)(Cc1cccnc1)P(=O)(O)O` [Risedronic acid (Actonel)], the “Glutathione normalized mean intensity” value is reported as 0.6565. With `Cc1ncc([N+](=O)[O-])n1CCO` [Metronidazole (Flagyl)] the “Glutathione normalized mean intensity” value was 0.5627. In the case of `CC(C)(S)[C@@H](N)C(=O)O` [Penicillamine (Cuprimine)], the “Glutathione normalized mean intensity” value is reported as 0.7681. `NC(=O)NO` [Hydroxyurea (Cytodrox)] was tested, and the “Glutathione normalized mean intensity” value was 0.4236.
